# Source: ChEMBL document CHEMBL1201862, “PubChem BioAssay data set” (2004)
# The source made the active and inactive calls.
# Legend:
# [1] = molecular target: Estrogen receptor beta (Homo sapiens, UniProt Q92731);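 note: recombinant ER-beta bound to coactivator SRC1 peptide in presence of estradiol agonist; inhibitors block coactivator peptide binding and lower the FRET signal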
# [2] = molecular target: Disintegrin and metalloproteinase domain-containing protein 17 (Homo sapiens, UniProt P78536); experiment: ADAM17 protease inhibitors, dose response, counter-screen for ADAM10 exosite inhibitor project, biochemical, quenched FRET substrate (AID 743253)
# [3] = ADAM10 inhibitors, peptide cleavage, dose response, biochemical, QFRET (AID 743254);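 note: ADAM10 enzyme with the DM2 quenched FRET peptide as substrate; EDANS fluorescence gain as the protease cuts the substrate; inhibitor potency against ADAM10 proteolytic activity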
# [4] = Luminescence Cell-Based Dose Confirmation HTS to Identify Inhibitors of Platelet Dense Granule Release. [Related pubchem assays: 1663 (Primary HTS), 1678 (Summary of Project)]; format: functional
# [5] = molecular target: Luciferin 4-monooxygenase (Photinus pyralis, UniProt P08659); experiment: firefly luciferase enzyme inhibitors, dose response, biochemical, luminescence (AID 1891)
# [6] = molecular target: E3 ubiquitin-protein ligase Mdm2 (Homo sapiens, UniProt Q00987); experiment: enhancers of MDM2-luciferase reporter signal, concentration-effect titration, project on inhibitors of MDM2 ubiquitin ligase, cellular assay, luminescent readout, 384-well plate format (AID 1394); format: functional;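 note: MDM2 E3 inhibitors raise luminescence so EC50 is for signal enhancement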
# [7] = molecular target: T1, Methionyl-tRNA synthetase, putative (Trypanosoma brucei brucei, UniProt Q38C91); format: functional, Trypanosoma brucei brucei strain 927/4 GUTat10.1
# T1 sequence (Q38C91 whole entry): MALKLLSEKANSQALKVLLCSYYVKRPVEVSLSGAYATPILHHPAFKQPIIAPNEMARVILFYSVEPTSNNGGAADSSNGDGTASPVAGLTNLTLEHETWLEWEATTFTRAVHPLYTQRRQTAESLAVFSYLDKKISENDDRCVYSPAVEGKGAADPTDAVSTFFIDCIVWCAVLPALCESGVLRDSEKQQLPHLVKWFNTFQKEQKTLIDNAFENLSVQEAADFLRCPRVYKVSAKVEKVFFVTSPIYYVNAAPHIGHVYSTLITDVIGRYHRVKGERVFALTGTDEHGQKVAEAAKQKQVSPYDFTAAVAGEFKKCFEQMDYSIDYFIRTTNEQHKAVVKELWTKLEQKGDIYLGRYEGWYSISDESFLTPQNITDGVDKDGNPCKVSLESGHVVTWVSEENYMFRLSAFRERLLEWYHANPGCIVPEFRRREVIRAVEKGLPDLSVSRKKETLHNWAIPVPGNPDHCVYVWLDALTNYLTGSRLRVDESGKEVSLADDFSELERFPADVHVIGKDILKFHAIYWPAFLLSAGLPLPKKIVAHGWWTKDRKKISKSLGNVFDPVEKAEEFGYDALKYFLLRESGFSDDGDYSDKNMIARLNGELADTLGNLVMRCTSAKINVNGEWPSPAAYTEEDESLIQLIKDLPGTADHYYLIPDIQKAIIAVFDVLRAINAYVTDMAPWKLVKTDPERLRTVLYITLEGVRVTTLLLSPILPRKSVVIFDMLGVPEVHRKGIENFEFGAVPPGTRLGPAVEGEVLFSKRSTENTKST
# [8] = Late stage counterscreen for inhibitors of Trypanosoma brucei methionyl tRNA synthetase (MetRS): Luminescence-based cell-based high throughput dose response assay to identify compounds that are cytotoxic to Jurkat human T lymphocyte cells.; format: functional
# [9] = Counterscreen for inhibitors of Trypanosoma brucei methionyl tRNA synthetase (MetRS): Luminescence-based cell-based high throughput dose response assay to identify compounds that are cytotoxic to Jurkat human T lymphocyte cells.; format: functional
# [10] = molecular target: T1, Methionyl-tRNA synthetase, putative; format: functional, Trypanosoma brucei brucei strain 927/4 GUTat10.1; remark: listed apart in the source
# [11] = molecular target: Paired box protein Pax-8 (Homo sapiens, UniProt Q06710); experiment: inhibitors of PAX8-driven TPO luciferase reporter, dose response, RMG-I cells, cherry-pick (AID 687027); format: functional, cell-based;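 note: luciferase reporter driven by Pax8 target thyroperoxidase promoter measured by SteadyGlo luminescence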
# [12] = inhibitors of HIV Env-driven cell fusion, dose response, cherry-pick (AID 652057); format: functional, cell-based
# [13] = off-target signal loss in HeLa-CEM21 co-culture – HeLa F-luc CTL cells, cherry-picked, counter-screen for HIV-1 Env fusion inhibitor project, dose response (AID 652040); format: functional, cell-based;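 note: potency for signal decrease marking cytotoxic or nonspecific inhibition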
# [14] = CEM21 lymphoblast cell cytotoxicity, dose response, cytotoxicity control for viral fusion inhibitor project, CellTiter-Glo luminescence, cherry-picked (AID 652042); format: functional, cell-based;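 note: potency for signal decrease meaning cytotoxicity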
# [15] = non-specific cell cytotoxicity, dose response, cytotoxicity control for PAX8 inhibitor project, plate reader, dry powder samples (AID 743021); format: functional, cell-based
# [16] = test system: HEK293; experiment: inhibitors of LMP1-driven NF-kB reporter, dose response, cell-based, HEK293, luciferase, cherry-pick (AID 588343); format: functional; settings: Homo sapiens
# [17] = MC4R antagonists, dose response, counter-screen for LGR2 antagonist project, cell-based, plate reader, cherry pick (AID 743444); format: functional;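 note: transfected HEK 293 cells stimulated with alpha-MSH peptide; potency of inhibitors of the alpha-MSH evoked signal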
# [18] = HepG2 cell cytotoxicity, dose response, cytotoxicity control, plate reader, cherry-pick, antagonist series (AID 743416); format: functional, cell-based
# [19] = molecular target: T2, Corticotropin-releasing factor receptor 2/Corticotropin-releasing factor-binding protein (Homo sapiens, UniProt P24387+Q13324); experiment: activators of CRF receptor 2 with binding protein – uHTS hits, confirmation (AID 602473); format: functional; settings: read-out: EC50_Mean
# T2 sequence (Q13324 whole entry): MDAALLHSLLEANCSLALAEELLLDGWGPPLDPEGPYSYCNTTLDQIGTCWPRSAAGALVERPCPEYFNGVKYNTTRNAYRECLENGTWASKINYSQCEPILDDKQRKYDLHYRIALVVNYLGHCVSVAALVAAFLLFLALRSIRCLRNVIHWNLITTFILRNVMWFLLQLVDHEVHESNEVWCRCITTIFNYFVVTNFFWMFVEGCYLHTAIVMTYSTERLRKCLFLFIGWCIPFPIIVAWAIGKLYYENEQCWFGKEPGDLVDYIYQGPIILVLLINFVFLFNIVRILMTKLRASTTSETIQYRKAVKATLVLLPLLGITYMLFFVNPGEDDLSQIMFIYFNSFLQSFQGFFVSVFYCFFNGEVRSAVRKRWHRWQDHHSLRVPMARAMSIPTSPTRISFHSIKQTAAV
# T2 sequence (P24387 whole entry): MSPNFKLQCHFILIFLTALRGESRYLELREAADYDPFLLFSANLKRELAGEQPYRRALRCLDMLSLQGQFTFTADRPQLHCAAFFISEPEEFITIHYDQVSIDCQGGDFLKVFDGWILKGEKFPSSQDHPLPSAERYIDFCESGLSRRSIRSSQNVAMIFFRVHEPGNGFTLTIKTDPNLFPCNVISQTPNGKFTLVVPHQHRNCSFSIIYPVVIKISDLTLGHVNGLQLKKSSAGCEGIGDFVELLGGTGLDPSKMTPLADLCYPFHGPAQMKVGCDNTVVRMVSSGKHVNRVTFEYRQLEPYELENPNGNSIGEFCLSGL
# [20] = HEK293 cell cytotoxicity, dose response, cytotoxicity control, plate reader, cherry-picked samples (AID 743446); format: functional, cell-based
# [21] = ZM109 Env clade C HIV-1 fusion inhibitors, dose response, HeLa effector, CEM target cells, luciferase, cherry-pick (AID 652058); format: functional, cell-based
# [22] = A549 cell cytotoxicity, dose response, cytotoxicity control, plate reader, cherry-pick, antagonist series (AID 743412); format: functional, cell-based
# [23] = LGR2 antagonists, dose response, cell-based, HEK293, CRE-luciferase reporter, cherry pick, set 2 (AID 743343); format: functional;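 note: transfected cells were stimulated with diluted bursicon conditioned medium after compound addition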
# [24] = inhibitors of clade B AD8 Env fusion, dose response, cell-based, cherry-pick (AID 652062); format: functional;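 note: luciferase signal from cell-cell fusion driven by HIV-1 clade B AD8 Env; potency is for inhibitors of fusion seen as a drop in luminescence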
# [25] = inhibitors of SNCA 5'UTR-driven reporter translation, confirmation, H4 neuroglioma cells, luminescence (AID 1988); format: functional, cell-based
# [26] = molecular target: T3, Heat shock factor protein 1 (Mus musculus, UniProt P38532); experiment: inhibition of MG132-induced HSE-luciferase signal, confirmation, cell-based, NIH3T3, luminescence, dose retest (AID 2382); format: functional;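 note: NIH3T3 fibroblasts with HSF1-driven luciferase reporter stressed by proteasome inhibitor MG132; luminescence from HSF1-driven luciferase expression after 8 hours of MG132 stress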
# T3 sequence (P38532 whole entry): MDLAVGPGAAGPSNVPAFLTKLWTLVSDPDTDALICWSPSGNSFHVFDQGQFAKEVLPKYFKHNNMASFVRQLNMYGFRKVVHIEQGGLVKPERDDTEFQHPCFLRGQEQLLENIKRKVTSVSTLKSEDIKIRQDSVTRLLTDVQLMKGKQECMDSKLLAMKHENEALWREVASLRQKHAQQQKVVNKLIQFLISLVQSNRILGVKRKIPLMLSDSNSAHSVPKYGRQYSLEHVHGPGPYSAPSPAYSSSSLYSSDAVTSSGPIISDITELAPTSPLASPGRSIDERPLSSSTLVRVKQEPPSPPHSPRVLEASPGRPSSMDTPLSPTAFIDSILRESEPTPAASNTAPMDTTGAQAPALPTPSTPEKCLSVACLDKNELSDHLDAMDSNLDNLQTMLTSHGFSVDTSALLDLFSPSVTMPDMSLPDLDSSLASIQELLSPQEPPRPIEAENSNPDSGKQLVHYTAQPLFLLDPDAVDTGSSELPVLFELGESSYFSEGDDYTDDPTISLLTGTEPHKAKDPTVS
# [27] = Luminescence Cell-Based Dose Response HTS to Identify Inhibitors of 5'UTR Stem-Loop Driven Prion Protein mRNA Translation in H4 Neuroglioblastoma Cells. [Related pubchem assays: 1827 (Project Summary), 1813 (Primary HTS)]; format: functional
# Chain of Disintegrin and metalloproteinase domain-containing protein 17 (P78536 whole entry, the tested form may be a part): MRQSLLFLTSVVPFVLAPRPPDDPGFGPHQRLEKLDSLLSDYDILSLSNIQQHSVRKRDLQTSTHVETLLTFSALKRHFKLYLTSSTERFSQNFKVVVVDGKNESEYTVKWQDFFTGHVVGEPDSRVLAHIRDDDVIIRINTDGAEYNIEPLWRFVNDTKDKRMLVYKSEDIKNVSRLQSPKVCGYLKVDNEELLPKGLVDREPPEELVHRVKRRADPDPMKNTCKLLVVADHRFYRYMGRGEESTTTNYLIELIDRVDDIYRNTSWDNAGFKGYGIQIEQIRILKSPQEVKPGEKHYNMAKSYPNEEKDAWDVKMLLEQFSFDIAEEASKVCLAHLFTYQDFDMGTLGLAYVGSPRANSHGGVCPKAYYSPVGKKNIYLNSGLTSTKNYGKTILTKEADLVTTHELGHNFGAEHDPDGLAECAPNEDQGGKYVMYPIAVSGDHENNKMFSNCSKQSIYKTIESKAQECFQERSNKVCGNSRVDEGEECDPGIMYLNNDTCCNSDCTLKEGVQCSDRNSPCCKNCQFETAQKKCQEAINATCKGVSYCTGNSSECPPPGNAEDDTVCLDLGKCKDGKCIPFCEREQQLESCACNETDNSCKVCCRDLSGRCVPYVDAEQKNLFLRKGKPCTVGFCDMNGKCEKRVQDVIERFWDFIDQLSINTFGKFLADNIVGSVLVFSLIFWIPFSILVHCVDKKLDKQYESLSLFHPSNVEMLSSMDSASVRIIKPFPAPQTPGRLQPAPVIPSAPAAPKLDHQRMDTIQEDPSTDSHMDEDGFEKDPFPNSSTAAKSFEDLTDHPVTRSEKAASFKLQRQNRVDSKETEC
# Chain of E3 ubiquitin-protein ligase Mdm2 (Q00987 whole entry): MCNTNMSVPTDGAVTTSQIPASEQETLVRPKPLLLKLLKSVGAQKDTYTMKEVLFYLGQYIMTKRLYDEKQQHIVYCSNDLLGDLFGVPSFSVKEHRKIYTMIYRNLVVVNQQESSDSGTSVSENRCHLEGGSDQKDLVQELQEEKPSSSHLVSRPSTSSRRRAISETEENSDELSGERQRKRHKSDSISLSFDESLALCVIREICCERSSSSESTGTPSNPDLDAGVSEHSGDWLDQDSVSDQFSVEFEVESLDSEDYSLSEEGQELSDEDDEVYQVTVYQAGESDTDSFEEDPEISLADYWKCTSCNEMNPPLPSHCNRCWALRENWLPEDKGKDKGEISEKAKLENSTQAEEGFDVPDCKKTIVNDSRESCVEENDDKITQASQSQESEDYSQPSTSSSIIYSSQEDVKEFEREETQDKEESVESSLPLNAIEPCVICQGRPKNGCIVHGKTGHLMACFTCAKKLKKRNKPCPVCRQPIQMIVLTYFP
# Chain of Estrogen receptor beta (Q92731 whole entry, the tested form may be a part): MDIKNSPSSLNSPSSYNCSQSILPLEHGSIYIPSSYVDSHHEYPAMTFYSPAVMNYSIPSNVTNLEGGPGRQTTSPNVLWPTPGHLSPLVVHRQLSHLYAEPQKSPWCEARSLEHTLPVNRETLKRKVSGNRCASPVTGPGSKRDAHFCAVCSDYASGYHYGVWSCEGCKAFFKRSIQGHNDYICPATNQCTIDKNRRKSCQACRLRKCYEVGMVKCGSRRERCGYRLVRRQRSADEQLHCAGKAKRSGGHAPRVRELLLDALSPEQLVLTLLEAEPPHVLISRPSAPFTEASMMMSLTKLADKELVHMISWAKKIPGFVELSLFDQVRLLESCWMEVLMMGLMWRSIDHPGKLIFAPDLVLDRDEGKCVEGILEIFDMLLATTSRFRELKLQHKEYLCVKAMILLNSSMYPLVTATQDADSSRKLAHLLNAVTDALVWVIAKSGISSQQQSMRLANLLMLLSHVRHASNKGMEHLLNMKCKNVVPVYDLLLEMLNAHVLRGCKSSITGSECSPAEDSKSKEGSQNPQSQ
# Chain of Paired box protein Pax-8 (Q06710 whole entry, the tested form may be a part): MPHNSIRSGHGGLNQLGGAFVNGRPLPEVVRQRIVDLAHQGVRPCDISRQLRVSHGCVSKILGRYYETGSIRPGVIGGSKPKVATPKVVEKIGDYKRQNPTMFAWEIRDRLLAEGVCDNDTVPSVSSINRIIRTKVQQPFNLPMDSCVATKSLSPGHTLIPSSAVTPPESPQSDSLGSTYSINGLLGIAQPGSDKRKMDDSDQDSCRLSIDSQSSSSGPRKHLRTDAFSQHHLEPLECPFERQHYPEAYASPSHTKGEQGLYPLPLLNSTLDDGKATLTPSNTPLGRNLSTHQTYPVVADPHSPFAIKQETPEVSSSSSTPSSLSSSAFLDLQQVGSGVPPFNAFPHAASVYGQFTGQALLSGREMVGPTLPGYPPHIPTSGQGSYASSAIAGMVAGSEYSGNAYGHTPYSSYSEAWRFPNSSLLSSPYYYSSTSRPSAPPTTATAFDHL
# Chain of Luciferin 4-monooxygenase (P08659 whole entry): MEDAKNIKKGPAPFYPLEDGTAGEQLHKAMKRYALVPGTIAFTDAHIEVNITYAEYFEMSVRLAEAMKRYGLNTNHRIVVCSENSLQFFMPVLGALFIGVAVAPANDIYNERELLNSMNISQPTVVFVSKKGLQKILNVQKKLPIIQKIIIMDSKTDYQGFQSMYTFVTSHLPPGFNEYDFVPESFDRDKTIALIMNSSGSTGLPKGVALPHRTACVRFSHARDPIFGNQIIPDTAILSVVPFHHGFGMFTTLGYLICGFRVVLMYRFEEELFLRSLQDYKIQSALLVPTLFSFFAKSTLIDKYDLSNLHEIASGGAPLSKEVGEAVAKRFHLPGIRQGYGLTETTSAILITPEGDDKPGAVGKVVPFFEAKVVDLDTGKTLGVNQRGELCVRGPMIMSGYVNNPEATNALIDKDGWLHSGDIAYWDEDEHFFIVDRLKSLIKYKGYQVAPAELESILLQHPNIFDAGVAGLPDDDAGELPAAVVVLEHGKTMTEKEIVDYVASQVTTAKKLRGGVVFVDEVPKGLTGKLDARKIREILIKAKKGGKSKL
compound,measurement,setting,value
O=C(OCC(=O)N1CCCC1)c1cncc(Br)c1,IC50,[1],> 50 µM (not active)
Cc1ccc(C(=S)NCS(=O)(=O)c2ccc(C)cc2)cc1,IC50,[2],14.5 µM (inactive)
CCCCn1c(SCc2nc(N)nc(Nc3ccccc3C)n2)nc2ccccc2c1=O,IC50,[2],> 69.5 µM (inactive)
same,IC50,[3],> 69.5 µM (inactive)
O=C(Cc1ccc(-n2c(=O)c3ccccc3n(Cc3ccccc3Cl)c2=O)cc1)NCC1CCCO1 (configuration not stated),EC50,[4],> 112 µM (not active)
same,EC50,[5],> 112 µM (not active)
same,EC50,[6],8.14 µM (not active)
O=C(Cn1cnc2ccccc21)Nc1cccc([N+](=O)[O-])c1,IC50,[7],1.76 µM (active)
same,IC50,[8],> 83.3 µM (inactive)
same,IC50,[9],83.1 µM (inactive)
same,IC50,[10],3.47 µM (active)
COc1ccc2[nH]c3c(N4CC(C)OC(C)C4)ncnc3c2c1 (configuration not stated),EC50,[6],7.39 µM (not active)
COc1ccc2[nH]c3nc(SCC(=O)Nc4ccc5c(c4)OCO5)nnc3c2c1,IC50,[7],0.489 µM (active)
same,IC50,[8],36.6 µM (inactive)
same,IC50,[9],24.5 µM (inactive)
same,IC50,[10],1.33 µM (active)
CC(C)CC(OC(=O)c1cccs1)C(=O)NCc1ccco1 (configuration not stated),IC50,[1],> 50 µM (not active)
C(=Cc1cnc2ccccc2n1)c1ccc2c(c1)OCO2,AC50,[11],2.92 µM (active)
same,AC50,[12],2.05 µM (active)
same,AC50,[13],4.37 µM (active)
same,AC50,[14],42.1 µM (active)
same,AC50,[15],6.27 µM (active)
same,AC50,[16],0.173 µM (active)
same,AC50,[17],0.25 µM (active)
same,AC50,[18],24.6 µM (active)
same,EC50,[19],> 53 µM (inactive)
same,AC50,[20],17 µM (active)
same,AC50,[21],13.5 µM (active)
same,AC50,[22],10.7 µM (active)
same,AC50,[23],0.263 µM (active)
same,AC50,[24],3.91 µM (active)
Cc1ccc(-c2nc(-c3ccccc3)no2)c(Cl)c1,EC50,[25],9.82 µM (inconclusive)
same,AC50,[17],1.26 µM (active)
same,AC50,[18],> 52 µM (inactive)
same,AC50,[20],39.7 µM (active)
same,AC50,[22],> 52 µM (inactive)
same,EC50,[26],< 0.16 µM (active)
same,EC50,[27],8.33 µM (active)
same,AC50,[23],0.842 µM (active)
CC(C)(C)[C@@H]1C=C(C(=O)NCc2nc3ccccc3[nH]2)O[C@H](OCc2ccc(CO)cc2)C1,IC50,[8],> 83.3 µM (inactive)
CC(C)(C)c1ccc(-c2nnc(SCC(=O)Nc3ccc(S(=O)(=O)Nc4nccs4)cc3)n2-c2ccc(Cl)cc2)cc1,IC50,[2],> 69.5 µM (inactive)
same,IC50,[3],10.6 µM (inactive)
